Experimental data published in patent US7556938B1, “Nucleic acids encoding potassium channel interactors” (Millennium Pharmaceuticals, Inc., priority 1998, dated 2009).

How the values were obtained:
[1] = biological target: T1, Kv4.2/KChIP1 (Rattus norvegicus, UniProt Q63881); experiment: AA modulation of Kv4.2/KChIP1 current in CHO cells; assay type: cell-based; details: Kv4.2/KChIP1, 10 μM AA
T1 construct: expressed in transfected cells; host or cells: CHO cells
T1 sequence (Q63881 1-630): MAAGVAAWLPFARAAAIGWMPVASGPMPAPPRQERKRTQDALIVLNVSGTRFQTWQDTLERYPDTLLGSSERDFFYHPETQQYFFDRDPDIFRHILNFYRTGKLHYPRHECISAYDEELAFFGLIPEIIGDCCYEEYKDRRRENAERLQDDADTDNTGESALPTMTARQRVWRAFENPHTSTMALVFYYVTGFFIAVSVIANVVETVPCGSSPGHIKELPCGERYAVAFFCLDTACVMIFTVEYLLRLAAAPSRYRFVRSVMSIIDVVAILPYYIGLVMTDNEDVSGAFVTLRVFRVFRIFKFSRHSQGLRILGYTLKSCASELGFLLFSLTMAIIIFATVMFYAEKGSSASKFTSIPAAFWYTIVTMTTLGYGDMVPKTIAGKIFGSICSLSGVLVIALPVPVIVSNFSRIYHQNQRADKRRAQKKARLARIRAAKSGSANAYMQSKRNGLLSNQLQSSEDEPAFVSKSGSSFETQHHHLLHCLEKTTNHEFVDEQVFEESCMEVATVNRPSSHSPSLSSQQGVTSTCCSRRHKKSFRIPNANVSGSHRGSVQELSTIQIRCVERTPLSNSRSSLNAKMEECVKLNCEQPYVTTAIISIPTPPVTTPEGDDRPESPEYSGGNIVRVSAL
T1 sequence (Q8R426 1-216 isoform Q8R426-2 partner): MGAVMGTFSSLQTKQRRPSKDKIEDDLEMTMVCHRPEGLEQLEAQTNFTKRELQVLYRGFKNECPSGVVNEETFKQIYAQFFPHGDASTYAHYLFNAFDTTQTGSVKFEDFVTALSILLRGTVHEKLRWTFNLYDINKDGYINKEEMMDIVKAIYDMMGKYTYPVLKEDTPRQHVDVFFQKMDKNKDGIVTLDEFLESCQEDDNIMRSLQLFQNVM
Description: HEK 293 and CHO cells were used for recordings 1-3 days after a transient transfection. Whole-cell currents were recorded from cells expressing GFP, identified by their green fluorescence. […] After Gigaseal and ruptured whole-cell configuration access, resistance was less than 10 MOhms. Whole-cell bath solutions were made from a 10× Hank's balanced salt solution (GibcoBRL) with the following final concentration (in mM): 138 NaCl, 5.4 KCl, 1.3 MgCl2, 1.3 CaCl2, 5.5 D-Glukos and 10 HEPES, pH 7.4. The intracellular electrode solution consisted of (in mM) 140 KCl, 10 HEPES, 10 EGTA, 0.5 MgCl2, pH 7.3. All chemicals were from Sigma (St. Louis, Mo.) or Fisher Scientific (Houston, Tex.). Membrane currents were recorded using a EPC9 patch-clamp amplifier (HEKA, Germany). Data were analyzed using Matlab (Natick, Ma), and leak subtracted if necessary. All experiments were done at room temperature. […]

[2] = biological target: T2, Kv1.1 (Rattus norvegicus, UniProt P10499); experiment: AA modulation of Kv1.1 current in Xenopus oocytes; assay type: cell-based; details: Kv1.1 alone, 10 μM AA
T2 construct: expressed in transfected cells; host or cells: Xenopus oocytes
T2 sequence (P10499 whole entry): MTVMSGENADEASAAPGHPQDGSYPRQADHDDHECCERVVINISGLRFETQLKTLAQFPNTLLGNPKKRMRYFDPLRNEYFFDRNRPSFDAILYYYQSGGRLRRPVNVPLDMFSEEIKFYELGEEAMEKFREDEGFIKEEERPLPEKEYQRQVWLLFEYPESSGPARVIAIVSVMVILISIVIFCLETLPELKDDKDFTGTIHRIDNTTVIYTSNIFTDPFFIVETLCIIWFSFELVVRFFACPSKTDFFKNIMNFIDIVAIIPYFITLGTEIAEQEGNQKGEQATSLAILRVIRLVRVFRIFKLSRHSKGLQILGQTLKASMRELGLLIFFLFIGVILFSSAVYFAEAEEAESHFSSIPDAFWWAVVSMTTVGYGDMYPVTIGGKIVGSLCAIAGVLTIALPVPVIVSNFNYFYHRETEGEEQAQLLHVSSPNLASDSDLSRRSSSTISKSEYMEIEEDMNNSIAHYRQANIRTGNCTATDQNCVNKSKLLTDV
Description: Frogs underwent no more than two surgeries and surgeries were performed by well established techniques. Frogs were anesthetized with ice. Total cRNA (1-10 ng) was injected into stage IV Xenopus oocytes that were harvested the previous day. The Xenopus oocytes were incubated in ND96 containing (in mM) 96 NaCl, 2 KCl, 1.8 CaCl2, 1 MgCl2, 5 HEPES, pH 7.6, plus (Gentamycin 50 μg/ml) at 18° C. Xenopus oocytes were studied 3-7 days after injection. The two-electrode voltage-clamp recordings were performed in ND96 solution using a TURBO TEC 03 Clamp Amplifier (ALA Scientific Instruments, Westbury, N.Y.). Both electrodes were filled with 3 M KCl and had electrode resistances ranging from 0.2-1 MOhm. The current signals were filtered at 1000 Hz before transferred on a PC (Gateway, Calif.) using the PULSE software (HEKA, Germany).
In this example, the foregoing was tested by measuring two alpha/auxiliary complexes: Kv4.3/KChIP1 and Kv1.1/Kvβ1. (Kvβ1, which is one of the classic potassium channel beta subunits, dramatically changes Kv1.1 kinetics). Kv4.3/KChIP and Kv1.1/Kvβ1 were expressed respectively in Xenopus oocytes and their resulting currents were recorded in the presence or absence of […] AA. […] Kinetically, […] was much more sensitive to AA modulation than was Kv1.1/Kvβ1 (Table 4).

`CCCCC/C=C\C/C=C\C/C=C\C/C=C\CCCC(=O)O` [arachidonic acid] was tested, and the “Peak amplitude (pA ± SEM)” value [1] was 2827 ± 496 pA, the “Inactivation time constant (ms ± SEM)” value ([1]; listed as AA) was 37 ± 3 ms and the “Peak amplitude (μA ± SEM)” value [2] was 21 ± 3 μA.
